Measured values: article PMC9775652, “Concomitant Administration of Red Ginseng Extract with Lactic Acid Bacteria Increases the Plasma Concentration of Deglycosylated Ginsenosides in Healthy Human Subjects” (Biomolecules, 2022)
“And” between values parts separate entries of the source, which are not always exact repeats. Identical values can stand only once. Like-named read-outs stand apart in the source and are kept apart here.

Legend:
[1] = Pharmacokinetic study of ginsenosides in healthy humans after repeated oral RGE with or without LAB; assay type: in vivo, human; conditions: for Cmax / MRT / Tmax / AUC: male, in vivo, human plasma, mean ± SD, n = 5; for Cmax: read-out: Cmax; for MRT: read-out: MRT; for Tmax: read-out: Tmax; for AUC: AUC 0 to 24 h, read-out: AUC
Description: A single-sequence study consisting of two periods was conducted on five healthy male subjects (body weight > 50 kg and age > 19 years) for 29 days. During the first period of the study (RGE treatment group), three pouches of RGE (30 mL, 104.1 mg of total ginsenosides) were administered to 5 subjects once daily for 14 days. On the 14th day, the subjects were admitted to the Clinical Trial Center of KNUH at 7 AM and underwent the last RGE administration at approximately 8–9 AM. Blood samples (approximately 3 mL) were collected at 0, 4, 6, 8, 10, 12, 13, 14, and 24 h after the last dose. A saline-locked angiocatheter was placed on the forearm of each subject’s hand. After discarding 1 mL of blood derived from the catheter, 3 mL of blood was drawn into a vacutainer tube containing heparin and centrifuged at 3000× g for 10 min. The supernatant plasma samples were stored at −80 °C until ginsenoside analysis.
In the second half of the study (RGE + LAB treatment group), 3 pouches of RGE (30 mL, 104.1 mg of total ginsenosides) and 1 pouch of LAB (1 billion CFU/2 g) were co-administered once daily for 14 days. On the […], the subjects were admitted to the Clinical Trial Center of KNUH at 7 AM and received the last red ginseng dose at approximately 8–9 AM. Blood samples (approximately 3 mL) were withdrawn at 0, 4, 6, 8, 10, 12, 13, 14, and 24 h intervals after the last dose and centrifuged at 3000× g for 10 min; the supernatant plasma samples were stored at −80 °C.
Briefly, to analyze GRb1, GRb2, GRc, GRd, GRe, GRf, GRg1, GRg3, GF1, and GF2, 400 μL of an internal standard (IS; 0.05 ng/mL berberine in methanol) was added to 100 μL of plasma. The mixture was vortexed for 15 min and centrifuged at 16,000× g for 5 min. After centrifugation, 400 μL of the supernatant was evaporated using a speed-dry vacuum concentrator (Christ, Osterode am Harz, Germany). The residue was reconstituted using 200 μL of 70% methanol supplemented with 0.1% formic acid, and a 10 μL aliquot was injected into the LC-MS/MS system. Chromatographic separation was performed using a Polar RP column (150 × 2.0 mm, 4.0 μm particle size; Phenomenex, Torrance, CA, USA) using a mobile phase consisting of 0.1% formic acid in water (phase A) and 0.1% formic acid in methanol (phase B). The following elution gradient was used: 69% of phase B for 0–2.0 min, 69–85% of phase B for 2.0–4.0 min, and 85–69% of phase B for 6.0–6.5 min. The flow rate was 0.27 mL/min.
The mixture was vortexed for 10 min and centrifuged at 16,000× g for 5 min. After centrifugation, the samples were frozen at −80 °C for 4 h. The upper layer was transferred to a clean tube and evaporated. The residue was reconstituted using 200 μL of 80% methanol supplemented with 0.1% formic acid, and a 10 μL aliquot was injected into the LC-MS/MS system. Chromatographic separation was performed using a Luna C18 column (150 × 2.0 mm, 3.0 μm particle size; Phenomenex, Torrance, CA, USA) and using a mobile phase consisting of water containing 0.1% formic acid: methanol containing 0.1% formic acid = 8:92 (v/v) at a flow rate of 0.15 mL/min.
The quantification of ginsenosides was carried out using multiple reaction monitoring in positive ionization mode, as previously described.
Finally, pharmacokinetic parameters were calculated using non-compartmental methods (WinNonlin version 5.1; Pharsight Co., Certara, NJ, USA). Statistical analysis was performed by Student’s t-test to compare the two groups using IBM SPSS Statistics for Windows (version 25.0; IBM Corp., Armonk, NY, USA). Differences were considered significant at p < 0.05.

[2] = Transport (permeability) of ginsenosides in CaCo-2 cell monolayers; assay type: in vitro ADME; conditions: human, Caco-2, CaCo-2 cell monolayers, 50 µM; B to A Papp divided by A to B Papp; read-out: Efflux ratio (ER)
[3] = system: LAB; experiment: In vitro RGE fermentation with LAB; assay type: in vitro ADME; conditions: RGE incubated with LAB (1 billion CFU) for 7 days at 37 °C; result in words
[4] = cited from earlier work
[5] = 104.1 mg total ginsenosides/day, RGE group, RGE oral 14 days

With `CC(C)=CCC[C@](C)(O)[C@H]1CC[C@]2(C)[C@@H]1[C@H](O)C[C@@H]1[C@@]3(C)CC[C@H](O[C@@H]4O[C@H](CO)[C@@H](O)[C@H](O)[C@H]4O)C(C)(C)[C@@H]3CC[C@]12C` [GRh2, ginsenoside Rh2] the “Fold increase of plasma AUC after LAB supplementation” value ([1]; RGE + LAB group compared to RGE group, humans, 2 weeks) was 2.1 fold and 2.7 fold, the “Change of AUC / pharmacokinetic parameters by RGE and LAB co-administration” value ([1]; RGE + LAB group versus RGE group, humans, result in words) was “significantly increased” and the Cmax [1, 5] was 2.1 ± 0.8 ng/mL. For the same compound, the MRT [1, 5] was 17 ± 9.3 h, the Tmax [1, 5] was 10.7 ± 0.6 h and the AUC ([1]; RGE + LAB group, RGE plus LAB (1 billion CFU/2 g) once daily oral 14 days) was 57.1 ± 22 ng·h/mL. The Cmax ([1]; RGE + LAB group, oral 14 days) was 13.9 ± 12.8 ng/mL, the MRT ([1]; RGE + LAB group, oral 14 days) was 10.2 ± 1.6 h and the Tmax ([1]; RGE + LAB group, oral 14 days) was 10.6 ± 1.8 h. For the same compound, the AUC ([1]; RGE group, RGE once daily oral 14 days (104.1 mg total ginsenosides/day)) was 21.3 ± 10.1 ng·h/mL, the efflux ratio at 50 µM [2] was 2.3 and the “Relative abundance / metabolic activity following fermentation of RGE with LAB” value [3] was “significantly increased”. For the same compound, the “Oral BA” value [4] was 5%.
